Assay results taken from ChEMBL document CHEMBL4376858, “Structure-Activity Relationships of Novel Thiazole-Based Modafinil Analogues Acting at Monoamine Transporters” (J Med Chem, 2020).

Legend:
[1] = biological target: Sodium-dependent dopamine transporter (Homo sapiens, UniProt Q01959); experiment: Inhibition of wild type human dopamine transporter expressed in HEK293 cells assessed as inhibition of [3H]dopamine reuptake preincubated for 5 mins followed by [3H]dopamine addition and measured after 1 min by liquid scintillation analysis; format: cell-based
[2] = biological target: Sodium-dependent noradrenaline transporter (Homo sapiens, UniProt P23975); experiment: Inhibition of wild type human NET expressed in HEK293 cells assessed as inhibition of [3H]-MPP+ reuptake preincubated for 5 mins followed by [3H]MPP+ addition and measured after 3 mins by liquid scintillation counting analysis; format: cell-based
[3] = biological target: Sodium-dependent serotonin transporter (Homo sapiens, UniProt P31645); format: cell-based, HEK293
Sequence of Sodium-dependent serotonin transporter (P31645 whole entry): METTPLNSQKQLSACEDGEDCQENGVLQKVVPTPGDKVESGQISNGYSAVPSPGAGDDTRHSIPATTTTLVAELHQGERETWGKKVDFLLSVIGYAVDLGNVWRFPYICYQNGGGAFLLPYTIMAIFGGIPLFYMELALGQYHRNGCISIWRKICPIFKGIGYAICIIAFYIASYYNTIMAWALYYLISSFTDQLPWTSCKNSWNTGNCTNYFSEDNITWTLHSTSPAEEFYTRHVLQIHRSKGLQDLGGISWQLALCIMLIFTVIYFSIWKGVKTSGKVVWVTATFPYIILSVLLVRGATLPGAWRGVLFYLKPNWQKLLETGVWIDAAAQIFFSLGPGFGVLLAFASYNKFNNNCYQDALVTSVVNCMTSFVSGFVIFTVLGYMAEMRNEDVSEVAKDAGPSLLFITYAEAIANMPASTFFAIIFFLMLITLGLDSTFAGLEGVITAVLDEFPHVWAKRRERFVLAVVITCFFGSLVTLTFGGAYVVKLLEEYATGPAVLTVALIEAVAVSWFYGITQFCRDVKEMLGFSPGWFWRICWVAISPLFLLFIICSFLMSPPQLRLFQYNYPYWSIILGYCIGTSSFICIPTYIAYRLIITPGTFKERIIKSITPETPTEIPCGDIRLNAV
Description: Inhibition of wild type human SERT expressed in HEK293 cells assessed as inhibition of [3H]-5HT reuptake preincubated for 5 mins followed by [3H]5HT addition and measured after 1 min by liquid scintillation counting analysis

Sequence of Sodium-dependent noradrenaline transporter (P23975 whole entry): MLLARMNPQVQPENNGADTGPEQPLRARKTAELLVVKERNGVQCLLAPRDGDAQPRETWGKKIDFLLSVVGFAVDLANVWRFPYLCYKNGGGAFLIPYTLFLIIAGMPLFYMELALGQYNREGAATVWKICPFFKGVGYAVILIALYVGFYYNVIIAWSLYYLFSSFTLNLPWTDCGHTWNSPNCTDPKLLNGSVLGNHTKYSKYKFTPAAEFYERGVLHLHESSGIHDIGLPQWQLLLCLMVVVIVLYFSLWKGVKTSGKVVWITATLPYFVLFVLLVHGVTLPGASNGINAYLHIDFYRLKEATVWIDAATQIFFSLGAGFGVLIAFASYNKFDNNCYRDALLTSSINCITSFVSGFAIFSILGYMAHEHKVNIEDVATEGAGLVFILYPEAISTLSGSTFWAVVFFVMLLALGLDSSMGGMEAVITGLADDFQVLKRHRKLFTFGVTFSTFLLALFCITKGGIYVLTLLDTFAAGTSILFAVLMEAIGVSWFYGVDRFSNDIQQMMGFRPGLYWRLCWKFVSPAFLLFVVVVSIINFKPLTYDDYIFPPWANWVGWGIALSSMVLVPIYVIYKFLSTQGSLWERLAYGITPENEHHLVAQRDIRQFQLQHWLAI
Sequence of Sodium-dependent dopamine transporter (Q01959 whole entry): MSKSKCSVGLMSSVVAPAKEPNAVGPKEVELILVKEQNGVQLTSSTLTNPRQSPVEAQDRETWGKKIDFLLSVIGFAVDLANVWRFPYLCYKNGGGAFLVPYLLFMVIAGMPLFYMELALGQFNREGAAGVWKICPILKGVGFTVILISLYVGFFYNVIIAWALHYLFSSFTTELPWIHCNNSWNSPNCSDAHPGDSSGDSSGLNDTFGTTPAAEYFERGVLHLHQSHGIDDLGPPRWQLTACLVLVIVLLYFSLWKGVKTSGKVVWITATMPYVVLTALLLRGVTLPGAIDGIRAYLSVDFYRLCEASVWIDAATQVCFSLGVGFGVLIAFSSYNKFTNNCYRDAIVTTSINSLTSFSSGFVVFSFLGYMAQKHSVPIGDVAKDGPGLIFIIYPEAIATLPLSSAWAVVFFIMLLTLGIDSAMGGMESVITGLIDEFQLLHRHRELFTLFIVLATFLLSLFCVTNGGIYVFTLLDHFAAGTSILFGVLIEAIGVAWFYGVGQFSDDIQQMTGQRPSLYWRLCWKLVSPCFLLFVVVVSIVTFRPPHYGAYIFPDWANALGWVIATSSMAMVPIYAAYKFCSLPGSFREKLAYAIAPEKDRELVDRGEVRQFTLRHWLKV

[O-][S+](Cc1csc(C2CC2)n1)C(c1ccccc1)c1ccccc1 (centres undefined)
IC50 ([1]; read-out: IC50): 4.1 µM
IC50 ([2]; read-out: IC50): 687 µM
IC50 ([3]; read-out: IC50): 436 µM

Cc1ccc(C(c2ccc(C)cc2)[S+]([O-])Cc2nccs2)cc1 (centres undefined)
IC50 ([1]; read-out: IC50): 29.4 µM
IC50 ([2]; hek293): Not Active
IC50 ([3]; hek293): Not Active

CCc1nc(C[S+]([O-])C(c2ccccc2)c2ccccc2)cs1 (centres undefined)
IC50 ([1]; read-out: IC50): 14.6 µM
IC50 ([2]; hek293): Not Active
IC50 ([3]; hek293): Not Active

COc1ncc(C[S+]([O-])C(c2ccccc2)c2ccccc2)s1 (centres undefined)
IC50 ([1]; read-out: IC50): 72.5 µM
IC50 ([2]; read-out: IC50): 139 µM
IC50 ([3]; hek293): Not Active

[O-][S+](Cc1csc(C2CC2)n1)C(c1ccc(Cl)cc1)c1ccc(Cl)cc1 (centres undefined)
IC50 ([1]; read-out: IC50): 14 µM
IC50 ([2]; hek293): Not Active
IC50 ([3]; hek293): Not Active

[O-][S@@+](Cc1cncs1)[C@@H](c1ccccc1)c1ccc(C(F)(F)F)cc1
IC50 ([1]; read-out: IC50): 39.5 µM
IC50 ([2]; hek293): Not Active
IC50 ([3]; hek293): Not Active

COc1ccc([C@H](c2ccccc2)[S@@+]([O-])Cc2cncs2)cc1
IC50 ([1]; read-out: IC50): 3.8 µM
IC50 ([2]; read-out: IC50): 196 µM
IC50 ([3]; hek293): Not Active

[O-][S+](Cc1cscn1)C(c1ccccc1)c1ccc(Br)cc1 (racemic)
IC50 ([1]; read-out: IC50): 1.85 µM
IC50 ([2]; read-out: IC50): 109 µM
IC50 ([3]; hek293): Not Active

CC(C)(C)c1ncc(C[S+]([O-])C(c2ccccc2)c2ccccc2)s1 (centres undefined)
IC50 ([1]; read-out: IC50): 59.7 µM
IC50 ([2]; hek293): Not Active
IC50 ([3]; hek293): Not Active

[O-][S@@+](Cc1cncs1)[C@H](c1ccccc1)c1ccc(Br)cc1
IC50 ([1]; read-out: IC50): 4.2 µM
IC50 ([2]; read-out: IC50): 67.8 µM
IC50 ([3]; hek293): Not Active

[O-][S@@+](Cc1cncs1)[C@@H](c1ccccc1)c1ccc(Br)cc1
IC50 ([1]; read-out: IC50): 1.6 µM
IC50 ([2]; read-out: IC50): 566 µM
IC50 ([3]; hek293): Not Active

[O-][S@+](Cc1cncs1)[C@@H](c1ccccc1)c1ccc(Cl)cc1
IC50 ([1]; read-out: IC50): 33 µM
IC50 ([2]; hek293): Not Active
IC50 ([3]; hek293): Not Active

[O-][S+](Cc1csc(Cl)n1)C(c1ccccc1)c1ccccc1 (racemic)
IC50 ([1]; read-out: IC50): 3.02 µM
IC50 ([2]; hek293): Not Active
IC50 ([3]; hek293): Not Active

[O-][S@+](Cc1cncs1)[C@H](c1ccccc1)c1ccc(F)cc1
IC50 ([1]; read-out: IC50): 8.3 µM
IC50 ([2]; read-out: IC50): 230 µM
IC50 ([3]; read-out: IC50): 145 µM

Cc1nc(CSC(c2ccccc2)c2ccccc2)cs1
IC50 ([1]; read-out: IC50): 91.4 µM
IC50 ([2]; read-out: IC50): 130 µM
IC50 ([3]; hek293): Not Active

[O-][S+](Cc1cscn1)C(c1ccc(F)cc1)c1ccc(F)cc1 (centres undefined)
IC50 ([1]; read-out: IC50): 6.76 µM
IC50 ([2]; hek293): Not Active
IC50 ([3]; hek293): Not Active

Cc1nc(C)c(C[S+]([O-])C(c2ccccc2)c2ccccc2)s1 (centres undefined)
IC50 ([1]; read-out: IC50): 87.1 µM
IC50 ([2]; hek293): Not Active
IC50 ([3]; hek293): Not Active

[O-][S@@+](Cc1cncs1)C(c1ccc(F)cc1)c1ccc(F)cc1
IC50 ([1]; read-out: IC50): 5.3 µM
IC50 ([2]; read-out: IC50): 85 µM
IC50 ([3]; hek293): Not Active

Cc1nc(C[S+]([O-])C(c2ccccc2)c2ccccc2)sc1C (centres undefined)
IC50 ([1]; read-out: IC50): 33.3 µM
IC50 ([2]; read-out: IC50): 107 µM
IC50 ([3]; read-out: IC50): 201 µM

[O-][S+](Cc1cscn1)C(c1ccccc1)c1ccccc1 (racemic)
IC50 ([1]; read-out: IC50): 6.66 µM
IC50 ([2]; hek293): Not Active
IC50 ([3]; hek293): Not Active

[O-][S+](Cc1cncs1)C(c1ccc(F)cc1)c1ccc(F)cc1 (racemic)
IC50 ([1]; read-out: IC50): 6.21 µM
IC50 ([2]; read-out: IC50): 121 µM
IC50 ([3]; hek293): Not Active

Cc1ccc(C(c2ccc(C)cc2)[S+]([O-])Cc2cncs2)cc1 (racemic)
IC50 ([1]; read-out: IC50): 10.6 µM
IC50 ([2]; read-out: IC50): 215 µM

Cc1ccc([C@H](c2ccccc2)[S@+]([O-])Cc2cncs2)cc1
IC50 ([1]; read-out: IC50): 134 µM
IC50 ([2]; hek293): Not Active
IC50 ([3]; hek293): Not Active

[O-][S@+](Cc1cncs1)[C@@H](c1ccccc1)c1ccc(C(F)(F)F)cc1
IC50 ([1]; hek293): Not Active
IC50 ([2]; hek293): Not Active
IC50 ([3]; hek293): Not Active

[O-][S@+](Cc1cncs1)[C@@H](c1ccccc1)c1ccc(Br)cc1
IC50 ([1]; read-out: IC50): 22.4 µM
IC50 ([2]; read-out: IC50): 365 µM
IC50 ([3]; hek293): Not Active

CCCCc1nc(C[S+]([O-])C(c2ccccc2)c2ccccc2)cs1 (centres undefined)
IC50 ([1]; read-out: IC50): 13.5 µM
IC50 ([2]; read-out: IC50): 164 µM
IC50 ([3]; hek293): Not Active

Cc1ncsc1C[S+]([O-])C(c1ccccc1)c1ccccc1 (centres undefined)
IC50 ([1]; read-out: IC50): 44.1 µM
IC50 ([2]; hek293): Not Active
IC50 ([3]; hek293): Not Active

Cc1ccc(C(c2ccc(C)cc2)[S+]([O-])Cc2cncs2)cc1 (stereo in doubt; 34a)
IC50 ([1]; read-out: IC50): 6.8 µM
IC50 ([2]; hek293): Not Active
IC50 ([3]; read-out: IC50): 264 µM

COc1ccc([C@@H](c2ccccc2)[S@+]([O-])Cc2cncs2)cc1
IC50 ([1]; read-out: IC50): 36.3 µM
IC50 ([2]; read-out: IC50): 261 µM
IC50 ([3]; read-out: IC50): 24.7 µM

[O-][S@@+](Cc1cncs1)[C@H](c1ccccc1)c1ccc(Cl)cc1
IC50 ([1]; read-out: IC50): 3.6 µM
IC50 ([2]; read-out: IC50): 38.6 µM
IC50 ([3]; hek293): Not Active

[O-][S@@+](Cc1cncs1)[C@@H](c1ccccc1)c1ccc(Cl)cc1
IC50 ([1]; read-out: IC50): 2.3 µM
IC50 ([2]; read-out: IC50): 72 µM
IC50 ([3]; hek293): Not Active

[O-][S+](Cc1cnc(Cl)s1)C(c1ccccc1)c1ccccc1 (centres undefined)
IC50 ([1]; read-out: IC50): 24.3 µM
IC50 ([2]; read-out: IC50): 108 µM
IC50 ([3]; hek293): Not Active

[O-][S@+](Cc1cncs1)[C@@H](c1ccccc1)c1ccc(F)cc1
IC50 ([1]; read-out: IC50): 27.8 µM
IC50 ([2]; hek293): Not Active
IC50 ([3]; hek293): Not Active

[O-][S+](Cc1cncs1)C(c1ccc(Cl)cc1)c1ccc(Cl)cc1 (racemic)
IC50 ([1]; read-out: IC50): 4.17 µM
IC50 ([2]; read-out: IC50): 45.5 µM
IC50 ([3]; read-out: IC50): 221 µM

Cc1ccc([C@@H](c2ccccc2)[S@@+]([O-])Cc2cncs2)cc1
IC50 ([1]; read-out: IC50): 6 µM
IC50 ([2]; hek293): Not Active
IC50 ([3]; hek293): Not Active

[O-][S+](Cc1cnc(C23CC4CC(CC(C4)C2)C3)s1)C(c1ccccc1)c1ccccc1 (centres undefined)
IC50 ([3]; hek293): Not Active

Cc1ccc(C(c2ccc(C)cc2)[S+]([O-])Cc2csc(C3CC3)n2)cc1 (centres undefined)
IC50 ([1]; hek293): Not Active
IC50 ([2]; hek293): Not Active
IC50 ([3]; hek293): Not Active

COc1ccc(C(c2ccc(OC)cc2)[S+]([O-])Cc2csc(C3CC3)n2)cc1 (centres undefined)
IC50 ([1]; read-out: IC50): 105 µM
IC50 ([2]; hek293): Not Active
IC50 ([3]; hek293): Not Active

[O-][S+](Cc1csc(-c2cccs2)n1)C(c1ccccc1)c1ccccc1 (racemic)
IC50 ([1]; read-out: IC50): 6.97 µM
IC50 ([2]; read-out: IC50): 111 µM
IC50 ([3]; hek293): Not Active

CCCc1nc(C[S+]([O-])C(c2ccccc2)c2ccccc2)cs1 (centres undefined)
IC50 ([1]; read-out: IC50): 28.4 µM
IC50 ([2]; hek293): Not Active
IC50 ([3]; hek293): Not Active

Cc1cnc(C[S+]([O-])C(c2ccccc2)c2ccccc2)s1 (centres undefined)
IC50 ([1]; read-out: IC50): 65.6 µM
IC50 ([2]; hek293): Not Active
IC50 ([3]; hek293): Not Active

[O-][S@+](Cc1cncs1)C(c1ccc(Cl)cc1)c1ccc(Cl)cc1
IC50 ([1]; read-out: IC50): 37.8 µM
IC50 ([2]; hek293): Not Active
IC50 ([3]; hek293): Not Active

[O-][S@@+](Cc1cncs1)[C@H](c1ccccc1)c1ccc(F)cc1
IC50 ([1]; read-out: IC50): 7.4 µM
IC50 ([2]; read-out: IC50): 104 µM
IC50 ([3]; hek293): Not Active

COc1ccc([C@@H](c2ccccc2)[S@@+]([O-])Cc2cncs2)cc1
IC50 ([1]; read-out: IC50): 12.2 µM
IC50 ([2]; hek293): Not Active
IC50 ([3]; read-out: IC50): 363 µM

Cc1nc(C[S+]([O-])C(c2ccccc2)c2ccccc2)c(C)s1 (centres undefined)
IC50 ([1]; read-out: IC50): 48.1 µM
IC50 ([2]; hek293): Not Active
IC50 ([3]; hek293): Not Active

[O-][S@@+](Cc1cncs1)C(c1ccc(Cl)cc1)c1ccc(Cl)cc1
IC50 ([1]; read-out: IC50): 4.1 µM
IC50 ([2]; read-out: IC50): 89.8 µM
IC50 ([3]; hek293): Not Active

[O-][S@+](Cc1cncs1)C(c1ccc(F)cc1)c1ccc(F)cc1
IC50 ([1]; read-out: IC50): 22.5 µM
IC50 ([2]; hek293): Not Active
IC50 ([3]; hek293): Not Active

[O-][S+](Cc1nccs1)C1c2ccccc2-c2ccccc21 (centres undefined)
IC50 ([1]; hek293): Not Active
IC50 ([2]; hek293): Not Active
IC50 ([3]; hek293): Not Active

[O-][S+](Cc1nccs1)C(c1ccc(Cl)cc1)c1ccc(Cl)cc1 (centres undefined)
IC50 ([1]; read-out: IC50): 9.58 µM
IC50 ([2]; hek293): Not Active
IC50 ([3]; hek293): Not Active

Cc1nc(CC[S+]([O-])C(c2ccccc2)c2ccccc2)cs1 (centres undefined)
IC50 ([1]; read-out: IC50): 61.4 µM
IC50 ([2]; hek293): Not Active
IC50 ([3]; hek293): Not Active

Cc1ccc(C(c2ccc(C)cc2)[S+]([O-])Cc2cncs2)cc1 (stereo in doubt; 34b)
IC50 ([1]; read-out: IC50): 356 µM
IC50 ([3]; hek293): Not Active
